According to ChEMBL document CHEMBL2375333, “Triterpenes from the aerial parts of Cimicifuga yunnanensis and their antiproliferative effects on p53(N236S) mouse embryonic fibroblasts” (J Nat Prod, 2013):

Assays:
[1] = test system: MEF; assay: Cytotoxicity against mouse wild type MEF cells after 48 hrs by MTT assay; type: cell-based
[2] = test system: MEF; assay: Cytotoxicity against mouse MEF cells harboring H-RasV12 and p53 N236S mutant after 48 hrs by MTT assay; type: functional, cell-based
[3] = test system: MEF; assay: Cytotoxicity against p53-/- mouse MEF cells harboring H-RasV12 after 48 hrs by MTT assay; type: functional, cell-based

Compound | IC50 [1] [µM] | IC50 [2] [µM] | IC50 [3] [µM]
C[C@@H]1C[C@]2(OC[C@](C)(O)[C@H]2O)O[C@H]2C[C@@]3(C)C4=C(C[C@@H](O)[C@]3(C)[C@@H]12)[C@@]1(C)CC[C@H](O)C(C)(C)[C@@H]1CC4 | 14.5 | 5.5 | –
C[C@@H]1C[C@]2(OC[C@](C)(O)[C@H]2O)O[C@H]2C[C@@]3(C)C4=CC[C@H]5C(C)(C)[C@@H](O)CC[C@]5(C)C4=CC[C@]3(C)[C@@H]12 | 6 | 8.6 | –
CC(=O)O[C@@H]1C[C@@]23C[C@@]24CC[C@H](O)C(C)(C)[C@@H]4CC[C@H]3[C@]2(C)C[C@@H]3OC(=O)C[C@@H](C)[C@@H]3[C@@]12C | – | – | 7.5
C[C@@H]1C[C@H]2O[C@@]3(O[C@@H]2C(C)(C)O)[C@H]1[C@@]1(C)[C@H](O)C[C@@]24C[C@@]25CC[C@H](O)C(C)(C)[C@@H]5CC=C4[C@]1(C)[C@H]3O | – | – | 9.8
C=C(C)[C@@H]1O[C@]23O[C@@H]1C[C@@H](C)[C@@H]2[C@@]1(C)CC[C@@]24C[C@@]25CC[C@H](O)C(C)(C)[C@@H]5CC[C@H]4[C@]1(C)[C@H]3O | – | – | 6.2
C[C@@H]1C[C@H]2O[C@]3(O[C@@H]2C(C)(C)O)[C@H]1[C@@]1(C)CCC2=C(CC[C@H]4C(C)(C)[C@@H]5CC[C@@]4(C2)O5)[C@]1(C)[C@H]3O [ACERINOL] | – | – | 10.2
C[C@@H]1C[C@@]2(O[C@H]3C[C@@]4(C)[C@@H]5CC[C@H]6C(C)(C)[C@@H](O)CC[C@@]67C[C@@]57C[C@@H](O)[C@]4(C)[C@@H]13)O[C@H](O)[C@]1(C)O[C@H]21 [ACTEOL] | – | – | 7.4
